Measurements reported in the NIST ThermoML archive (doi:10.1016/j.jct.2005.09.005).
Numbers after ± are expanded uncertainties.

Experiment: molar heat capacity at constant pressure
Conditions: 101.33 kPa, Crystal, Vacuum adiabatic calorimetry

[2H]O[2H] [water-d2]
Conditions	molar heat capacity at constant pressure [J/K/mol]
5 K	0.0363 ± 0.01
6.58 K	0.0659 ± 0.011
7.08 K	0.141 ± 0.012
7.56 K	0.12 ± 0.011
8.12 K	0.158 ± 0.012
8.61 K	0.19 ± 0.012
9.07 K	0.222 ± 0.012
9.51 K	0.261 ± 0.012
9.94 K	0.305 ± 0.012
10 K	0.315 ± 0.012
10.37 K	0.358 ± 0.013
10.8 K	0.407 ± 0.013
11.22 K	0.462 ± 0.014
11.65 K	0.523 ± 0.014
12.68 K	0.659 ± 0.015
13.4 K	0.774 ± 0.016
14.11 K	0.8996 ± 0.017
14.93 K	1.051 ± 0.017
15 K	1.07 ± 0.02
15.65 K	1.193 ± 0.018
16.38 K	1.337 ± 0.019
17.11 K	1.492 ± 0.02
17.84 K	1.652 ± 0.021
18.58 K	1.814 ± 0.021
19.33 K	1.982 ± 0.022
20 K	2.125 ± 0.022
20.08 K	2.152 ± 0.022
21.87 K	2.524 ± 0.023
24.35 K	3.102 ± 0.025
25 K	3.246 ± 0.025
26.84 K	3.651 ± 0.025
29.35 K	4.206 ± 0.025
30 K	4.322 ± 0.049
31.87 K	4.729 ± 0.05
34.41 K	5.231 ± 0.051
36.93 K	5.723 ± 0.052
39.46 K	6.213 ± 0.052
40 K	6.304 ± 0.052
41.98 K	6.674 ± 0.053
44.5 K	7.12 ± 0.054
47.01 K	7.558 ± 0.055
49.52 K	8.018 ± 0.057
50 K	8.154 ± 0.057
52.01 K	8.514 ± 0.06
54.5 K	9.012 ± 0.06
56.99 K	9.486 ± 0.06
59.48 K	9.885 ± 0.06
60 K	9.968 ± 0.06
62.01 K	10.32 ± 0.06
64.5 K	10.83 ± 0.06
66.98 K	11.22 ± 0.07
69.45 K	11.66 ± 0.07
70 K	11.72 ± 0.07
71.93 K	12.02 ± 0.07
74.43 K	12.44 ± 0.07
76.9 K	12.74 ± 0.07
79.38 K	13.19 ± 0.07
80 K	13.39 ± 0.07
81.85 K	13.77 ± 0.07
82.58 K	13.86 ± 0.07
84.31 K	14.14 ± 0.07
84.89 K	14.3 ± 0.07
87.37 K	14.74 ± 0.07
89.84 K	15.12 ± 0.07
90 K	15.16 ± 0.22
92.31 K	15.57 ± 0.22
94.78 K	15.98 ± 0.22
97.24 K	16.41 ± 0.22
99.71 K	16.82 ± 0.22
100 K	16.89 ± 0.22
102.17 K	17.25 ± 0.22
104.63 K	17.71 ± 0.22
107.09 K	18.15 ± 0.22
109.53 K	18.67 ± 0.22
110 K	18.7 ± 0.22
111.98 K	19.03 ± 0.22
114.42 K	19.58 ± 0.22
116.87 K	19.92 ± 0.22
119.31 K	20.41 ± 0.22
120 K	20.48 ± 0.22
121.79 K	20.81 ± 0.22
124.23 K	21.21 ± 0.22
126.67 K	21.62 ± 0.22
129.11 K	22.03 ± 0.22
130 K	22.2 ± 0.22
131.54 K	22.45 ± 0.22
133.98 K	22.91 ± 0.22
136.41 K	23.27 ± 0.22
138.85 K	23.7 ± 0.22
140 K	23.89 ± 0.22
141.28 K	24.08 ± 0.22
143.71 K	24.5 ± 0.22
146.14 K	24.9 ± 0.22
148.57 K	25.31 ± 0.22
150 K	25.54 ± 0.22
151 K	25.71 ± 0.22
153.43 K	26.1 ± 0.22
